In US9382572B2, “Methods of determining biocide efficacy or mechanism of action using flow cytometry” (Ecolab USA Inc., priority 2013, dated 2016):

Legend:
[1] = tested on: E. coli growth in LB media; experiment: Synergy between DDAC and TTPC by flow cytometry, Example 3; conditions: 40 ppm of biocide, ratio DDAC:TTPC
[2] = tested on: Cultures of E. coli; experiment: Viability measured by flow cytometry, Example 6; assay type: cell-based; conditions: Escherichia coli, 4 hours at 37° C., n=3, ± 1 standard deviation, read-out: reduced viable bacteria (flow cytometry)
Protocol: (§1) Cultures of E. coli were left untreated or treated with tributyltetradecyl phosphonium chloride (TTPC) at 75 ppm, 150 ppm, or 300 ppm. Flow cytometry samples were prepared as described in Example 1 and triplicate culture bottles were prepared of the treated E. coli and untreated E. coli after 4 hours of incubation at 37° C. […] Viability was measured by flow cytometry and serial dilution in LB media. […] Error bars indicate 1 standard deviation. An asterisk indicates a statistically significant difference (p<0.05) and two asterisk indicates a p-value <0.01.

[3] = tested on: Cultures of E. coli; experiment: Viability by standard culture method (serial dilution in LB media), Example 6; assay type: cell-based; conditions: Escherichia coli, 4 hours at 37° C., n=3, ± 1 standard deviation, read-out: reduced viable bacteria (serial dilution culturing)
Protocol: as §1

[4] = tested on: E. coli in LB media; experiment: Effect of citric acid treatment on flow cytometry viable bacteria, Examples 8-9; assay type: cell-based, Escherichia coli; conditions: concentration less than or equal to 20 mM

Compound | Depolarized and Membrane-damaged/mL [1] [mL⁻¹] | Depolarized/mL [1] [mL⁻¹] | Membrane-damaged/mL [1] [mL⁻¹] | Viable/mL [1] [mL⁻¹] | inhibition at 75 ppm ([2]; 75 ppm) [%] | inhibition at 150 ppm ([2]; 150 ppm) [%] | inhibition at 300 ppm ([2]; 300 ppm) [%] | inhibition at 75 ppm ([3]; 75 ppm) [%] | inhibition at 150 ppm ([3]; 150 ppm) [%] | inhibition at 300 ppm ([3]; 300 ppm) [%] | effect on cell viability when analyzed by flow cytometry [4]
CCCCCCCCCC[N+](C)(C)CCCCCCCCCC.[Cl-] [10:0, didecyldimethylammonium chloride] | 555000 | 1.45e+06 | 349 | 5390 | – | – | – | – | – | – | –
CCCCCCCCCCCCCC[P+](CCCC)(CCCC)CCCC.[Cl-] [TTPC, tributyl tetradecyl phosphonium chloride] | 1.67e+06 | 2.54e+06 | 537 | 6330 | 97.9 | 99.7 | 100 | 99 | 100 | 100 | –
O=C(O)CC(O)(CC(=O)O)C(=O)O [citric acid] | – | – | – | – | – | – | – | – | – | – | does not affect the cell viability
